Counter-ions that a name gives are not always drawn. Like-named read-outs stand apart in the source and are kept apart here.
Experiments:
Format in all cases: biochemical
recombinant PRL-1 = target: T1, recombinant PRL-1 (Homo sapiens, UniProt Q93096); assay: In vitro phosphatase assay (DiFMUP hydrolysis), PRL-1; also: test concentration or dose not given here
T1 construct: 6xHis (N, cleaved yes); made in house; host or cells: E. coli One Shot BL21 Star
T1 sequence (Q93096 1-173): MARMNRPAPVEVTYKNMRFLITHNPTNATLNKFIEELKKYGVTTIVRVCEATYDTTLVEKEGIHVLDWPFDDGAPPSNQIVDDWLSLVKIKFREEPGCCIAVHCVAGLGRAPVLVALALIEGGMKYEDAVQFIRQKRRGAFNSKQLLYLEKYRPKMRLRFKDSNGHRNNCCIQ

recombinant PRL-2 = target: T2, recombinant PRL-2 (Homo sapiens, UniProt Q12974); assay: In vitro phosphatase assay (DiFMUP hydrolysis), PRL-2;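 also: PRL-2 activity read as DiFMUP hydrolysis after 20 min at room temperature with drug, enzyme first pre-reduced at 4 °C for 20 min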
T2 construct: 6xHis (N, cleaved yes); made in house; host or cells: E. coli One Shot BL21 Star
T2 sequence (Q12974 1-167): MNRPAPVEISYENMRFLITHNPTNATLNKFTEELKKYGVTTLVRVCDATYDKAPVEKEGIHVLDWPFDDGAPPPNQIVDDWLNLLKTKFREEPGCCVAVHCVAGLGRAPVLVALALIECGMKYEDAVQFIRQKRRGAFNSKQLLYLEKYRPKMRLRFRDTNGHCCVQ

recombinant PRL-3 = target: T3, recombinant PRL-3 (Homo sapiens, UniProt O75365); assay: In vitro phosphatase assay (DiFMUP hydrolysis), PRL-3; also: test concentration or dose not given here
T3 construct: 6xHis (N, cleaved yes); made in house; host or cells: E. coli One Shot BL21 Star
T3 sequence (O75365 whole entry): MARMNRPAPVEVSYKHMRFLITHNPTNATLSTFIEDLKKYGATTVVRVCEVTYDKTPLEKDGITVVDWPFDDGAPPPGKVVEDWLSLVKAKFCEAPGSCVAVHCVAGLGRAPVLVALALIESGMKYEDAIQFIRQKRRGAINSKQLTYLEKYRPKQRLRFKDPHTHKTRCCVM

[1] = FDA-approved drug screen, compared to DMSO

Row | SMILES | % Phosphatase Activity (compared to DMSO) PRL-1 (recombinant PRL-1; [1]) [%] | % Phosphatase Activity (compared to DMSO) PRL-2 (recombinant PRL-2; [1]) [%] | % Phosphatase Activity (compared to DMSO) PRL-3 (recombinant PRL-3; [1]) [%] | % Phosphatase Activity (compared to DMSO) PRL-1 (recombinant PRL-1) [%] | % Phosphatase Activity (compared to DMSO) PRL-2 (recombinant PRL-2) [%] | % Phosphatase Activity (compared to DMSO) PRL-3 (recombinant PRL-3) [%]
1 | CCOc1cc(N)c(Cl)cc1C(=O)NCC1CN(Cc2ccc(F)cc2)CCO1 (stereo not drawn) [Mosapride Citrate] | 88 | 101 | 57 | – | – | –
2 | CCCN(CCC)C(=O)C1=Cc2ccc(-c3ccc(C(=O)N4CCCC4)cc3)cc2N=C(N)C1 [Motolimod (VTX-2337)] | 103 | 90 | 106 | – | – | –
3 | CO[C@@]1(NC(=O)C(C(=O)O)c2ccc(O)cc2)C(=O)N2C(C(=O)O)=C(CSc3nnnn3C)CO[C@@H]21 (stereo partly drawn) [Moxalactam Disodium] | 88 | 97 | 89 | – | – | –
4 | COc1c(N2C[C@@H]3CCCN[C@@H]3C2)c(F)cc2c(=O)c(C(=O)O)cn(C3CC3)c12 [Moxifloxacin HCl] | 562 | 594 | 417 | – | – | –
5 | COc1nc(C)nc(Cl)c1N=C1NCCN1 [Moxonidine] | 105 | 109 | 80 | – | – | –
6 | C/C(=C\C(=O)OCCCCCCCCC(=O)O)C[C@@H]1OC[C@H](C[C@@H]2O[C@H]2[C@@H](C)[C@H](C)O)[C@@H](O)[C@H]1O [Mupirocin] | 92 | 97 | 69 | – | – | –
7 | COc1c(C)c2c(c(O)c1C/C=C(\C)CCC(=O)OCCN1CCOCC1)C(=O)OC2 [Mycophenolate Mofetil] | 131 | 125 | 102 | – | – | –
8 | COc1c(C)c2c(c(O)c1C/C=C(\C)CCC(=O)O)C(=O)OC2 [Mycophenolic acid] | 125 | 100 | 85 | – | – | –
9 | COc1ccc2cc(CCC(C)=O)ccc2c1 [Nabumetone] | 91 | 102 | 68 | – | – | –
10 | CC1CCc2c(N3CCC(O)CC3)c(F)cc3c(=O)c(C(=O)O)cn1c23 (stereo not drawn) [Nadifloxacin] | 133 | 108 | 86 | – | – | –
11 | N=C(N)c1ccc2cc(OC(=O)c3ccc(N=C(N)N)cc3)ccc2c1 [Nafamostat Mesylate] | 204 | 264 | 67 | – | – | –
12 | CCOc1ccc2ccccc2c1C(=O)N[C@@H]1C(=O)N2[C@@H]1SC(C)(C)[C@@H]2C(=O)O [Nafcillin Sodium] | 98 | 108 | 60 | – | – | –
13 | COc1ccccc1N1CCN(CC(O)COc2cccc3ccccc23)CC1 (stereo not drawn) [Naftopidil] | 109 | 111 | 94 | – | – | –
14 | CCn1cc(C(=O)O)c(=O)c2ccc(C)nc21 [Nalidixic acid] | 112 | 122 | 100 | – | – | –
15 | O=C1CC[C@@]2(O)[C@H]3Cc4ccc(O)c5c4[C@@]2(CCN3CC2CC2)[C@H]1O5 [Naltrexone HCl] | 100 | 120 | 95 | – | – | –
16 | CCCCCCCCCC(=O)O[C@H]1CC[C@H]2[C@@H]3CCC4=CC(=O)CC[C@@H]4[C@H]3CC[C@]12C [Nandrolone decanoate] | 93 | 94 | 90 | – | – | –
17 | C[C@]12CC[C@H]3[C@@H](CCC4=CC(=O)CC[C@@H]43)[C@@H]1CC[C@@H]2O [Nandrolone] | – | – | – | 93 | 93 | 78
18 | c1ccc2c(CC3=NCCN3)cccc2c1 [Naphazoline HCl] | 100 | 102 | 83 | – | – | –
19 | CNS(=O)(=O)CCc1ccc2[nH]cc(C3CCN(C)CC3)c2c1 [Naratriptan] | 103 | 86 | 90 | – | – | –

Row | SMILES | % Phosphatase Activity (compared to DMSO) PRL-1 (recombinant PRL-1; [1]) [%] | % Phosphatase Activity (compared to DMSO) PRL-2 (recombinant PRL-2; [1]) [%] | % Phosphatase Activity (compared to DMSO) PRL-3 (recombinant PRL-3; [1]) [%] | % Phosphatase Activity (compared to DMSO) PRL-1 (recombinant PRL-1) [%] | % Phosphatase Activity (compared to DMSO) PRL-2 (recombinant PRL-2) [%] | % Phosphatase Activity (compared to DMSO) PRL-3 (recombinant PRL-3) [%]
20 | C[C@@H]1C/C=C/C=C/C=C/C=C/[C@H](O[C@@H]2O[C@H](C)[C@@H](O)[C@H](N)[C@@H]2O)C[C@@H]2O[C@](O)(C[C@@H](O)C[C@H]3O[C@@H]3/C=C/C(=O)O1)C[C@H](O)[C@H]2C(=O)O [Natamycin] | 96 | 82 | 78 | – | – | –
21 | CC(C)[C@H]1CC[C@H](C(=O)N[C@H](Cc2ccccc2)C(=O)O)CC1 [Nateglinide] | 92 | 90 | 73 | – | – | –
22 | OC(CNCC(O)C1CCc2cc(F)ccc2O1)C1CCc2cc(F)ccc2O1 (stereo not drawn) [Nebivolol] | 105 | 81 | 87 | – | – | –
23 | [NH2][Pt]1([NH2])[O]CC(=O)[O]1 [Nedaplatin] | 102 | 97 | 94 | – | – | –
24 | Cc1cccc(C)c1NC(=O)CN1CCCC1=O [Nefiracetam] | 94 | 95 | 88 | – | – | –
25 | CN1CCOC(c2ccccc2)c2ccccc2C1 (stereo not drawn) [Nefopam HCl] | 108 | 87 | 101 | – | – | –
26 | COc1nc(N)nc2c1ncn2[C@@H]1O[C@H](CO)[C@@H](O)[C@@H]1O [Nelarabine] | – | – | – | 93 | 108 | 79
27 | Cc1c(O)cccc1C(=O)N[C@@H](CSc1ccccc1)[C@H](O)CN1C[C@H]2CCCC[C@H]2C[C@H]1C(=O)NC(C)(C)C [Nelfinavir Mesylate] | 102 | 91 | 79 | – | – | –
28 | NC[C@@H]1O[C@H](O[C@H]2[C@@H](O)[C@H](O[C@@H]3[C@@H](O)[C@H](N)C[C@H](N)[C@H]3O[C@H]3O[C@H](CN)[C@@H](O)[C@H](O)[C@H]3N)O[C@@H]2CO)[C@H](N)[C@@H](O)[C@@H]1O.O=S(=O)(O)O [Neomycin sulfate] | 98 | 103 | 86 | – | – | –
29 | NC(=O)Cc1cccc(C(=O)c2ccccc2)c1N [Nepafenac] | 96 | 93 | 72 | – | – | –
30 | CCOc1cc2ncc(C#N)c(Nc3ccc(OCc4ccccn4)c(Cl)c3)c2cc1NC(=O)/C=C/CN(C)C [Neratinib (HKI-272)] | 110 | 111 | 91 | – | – | –
31 | CCN[C@@H]1C[C@H](N)[C@@H](O[C@H]2OC(CN)=CC[C@H]2N)[C@H](O)[C@H]1O[C@H]1OC[C@](C)(O)[C@H](NC)[C@H]1O.CCN[C@@H]1C[C@H](N)[C@@H](O[C@H]2OC(CN)=CC[C@H]2N)[C@H](O)[C@H]1O[C@H]1OC[C@](C)(O)[C@H](NC)[C@H]1O.O=S(=O)(O)O.O=S(=O)(O)O.O=S(=O)(O)O.O=S(=O)(O)O.O=S(=O)(O)O [Netilmicin Sulfate] | 86 | 110 | 111 | – | – | –
32 | Cc1ccnc2c1NC(=O)c1cccnc1N2C1CC1 [Nevirapine] | 85 | 101 | 111 | – | – | –
33 | O=C(CCNNC(=O)c1ccncc1)NCc1ccccc1 [Nialamide] | 95 | 100 | 96 | – | – | –
34 | COC(=O)C1=C(C)NC(C)=C(C(=O)OCCN(C)Cc2ccccc2)C1c1cccc([N+](=O)[O-])c1 (stereo not drawn) [Nicardipine HCl] | 85 | 80 | 68 | – | – | –
35 | O=C(NCCO[N+](=O)[O-])c1cccnc1 [Nicorandil] | 86 | 103 | 91 | – | – | –
36 | NC(=O)c1cccnc1 [Nicotinamide (Vitamin B3)] | 88 | 95 | 98 | – | – | –
37 | CN1CCC[C@H]1c1cccnc1.O=C(O)C(O)C(O)C(=O)O.O=C(O)C(O)C(O)C(=O)O [Nicotine Ditartrate] | – | – | – | 95 | 96 | 96
38 | O=C(O)c1cccnc1 [Nicotinic Acid] | – | – | – | 95 | 94 | 91

Reference: article PMC8119466, “A screen of FDA-approved drugs identifies inhibitors of protein tyrosine phosphatase 4A3 (PTP4A3 or PRL-3)” (Scientific Reports, 2021)
